From patent US11866516B2, “Isolated peptide, anti-cancer medicinal composition including the same and method of specifically reducing or inhibiting activities of cancer cells using the same” (National Sun Yat-Sen Univesity, priority 2020, dated 2024)
No end group written: not given here.

What was measured:
HCT116 cells [1] = experiment: cell viability, HCT116 cells; type: cell-based, human; details: data not shown
Protocol: (§1) Since ATG4 might be required for cancer cell viability and metastatic characteristics, such as migration and invasion, the H4 cells and HCT116 cells were treated with peptides to determine the short- and long-term effects of peptide on cancer cells (FIGS. 4A to 4B).

[2] = system: human glioblastoma H4 cells; experiment: cell migration assay, H4 cells; type: cell-based; details: TAT-GBRL2 at higher dose (20 μM), data not shown
Protocol: (§2) Besides the role of ATG4 in cancer cell survival, ATG4 plays a crucial role in cancer metastasis. Human glioblastoma H4 cells and colorectal cancer HCT116 cells were treated with the peptides for the cell migration assay.

H4 cells [3] = experiment: cell viability, H4 cells; type: cell-based, human; details: data not shown
Protocol: as §1

HCT116 cells [4] = experiment: propidium iodide (PI) uptake, HCT116 cells; type: cell-based, human; details: data not shown
Protocol: as §1

[5] = system: colorectal cancer HCT116 cells; experiment: cell migration assay, HCT116 cells; type: cell-based, human; details: TAT-GBRL2 at higher dose (20 μM), data not shown
Protocol: as §2

H4 cells [6] = experiment: propidium iodide (PI) uptake, H4 cells; type: cell-based, human; details: data not shown
Protocol: as §1

recombinant ATG4A = biological target: T1, recombinant ATG4A (Homo sapiens, UniProt Q8WYN0); experiment: ATG4 reporter GBRL2-PLA2 assay with recombinant ATG4A; type: biochemical; details: for inhibitory effect on ATG4A proteolytic activity: recombinant ATG4A 5 nM, 100 nM GBRL2-PLA2, EDTA as positive control
T1 sequence (Q8WYN0 1-398): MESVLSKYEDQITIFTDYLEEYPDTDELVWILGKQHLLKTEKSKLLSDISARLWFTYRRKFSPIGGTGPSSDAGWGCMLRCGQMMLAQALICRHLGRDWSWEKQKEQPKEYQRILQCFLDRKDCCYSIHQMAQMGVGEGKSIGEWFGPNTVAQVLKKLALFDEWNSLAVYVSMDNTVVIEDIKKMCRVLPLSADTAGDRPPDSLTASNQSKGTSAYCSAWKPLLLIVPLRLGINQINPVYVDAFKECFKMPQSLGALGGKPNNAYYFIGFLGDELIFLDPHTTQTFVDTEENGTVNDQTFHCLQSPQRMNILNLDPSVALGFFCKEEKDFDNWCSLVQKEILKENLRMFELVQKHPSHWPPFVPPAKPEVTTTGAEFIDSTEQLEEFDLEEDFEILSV
Protocol: (§3) FIGS. 2A to 2C illustrate the inhibitory effects of GBRL2-derived peptides on ATG4 proteolytic activity according to several embodiments of the present invention. FIGS. 2A and 2B illustrate three α-helical peptides (H1, H2 and H3) derived from GBRL2, which were 2-fold serial titrated and mixed with recombinant ATG4A (5 nM) (FIG. 2A) or recombinant ATG4B (0.1 nM) (FIG. 2B) in the presence of 100 nM reporter GBRL2-PLA2, a general substrate for ATG4 members, to evaluate the inhibitory effect of peptides on ATG4A and ATG4B. The IC50 of peptides on ATG4B and ATG4A was analyzed by Prism 5.0. FIG. 2C illustrates the inhibitory activity of EDTA on proteolysis of ATG4 as a positive control in the upper panel. In the lower panel of FIG. 2C, the H2 peptide was further counter assayed with 0.5 nM caspase-3 and 100 μM DEVD-AFC to validate its specificity.
(§4) The reporter assay was modified from a previous report. Briefly, recombinant ATG4A or ATG4B was mixed with 100 nM GBRL2-PLA2 fusion protein in 20 μL PLA2 reaction buffer containing 20 mM Tris-HCl, pH 8.0, 2 mM CaCl2) and 1 mM DTT, and 20 μM 2-(6-(7-nitrobenz-2-oxa-1,3-diazol-4-yl)amino)hexanoyl-1-hexadecanoyl-sn-glycero-3-phosphocholine (NBD-C6-HPC) (Invitrogen, N-3786). Fluorescence intensity was measured within 30-60 minutes using Fluoroskan Ascent FL Reader (Thermo Fisher Scientific) at room temperature with excitation and emission wavelength of 485 nm and 530 nm, respectively. The IC50 of peptides on GBRL2-PLA2 was determined using nonlinear regression fitting of a series of progress curves.

ATG4B [7] = biological target: T2, ATG4B (Homo sapiens, UniProt Q9Y4P1); experiment: ATG4 reporter GBRL2-PLA2 assay with recombinant ATG4B; type: biochemical; details: for inhibitory effect on ATG4B proteolytic activity: recombinant ATG4B 0.1 nM, 100 nM GBRL2-PLA2, EDTA as positive control
T2 sequence (Q9Y4P1 1-393): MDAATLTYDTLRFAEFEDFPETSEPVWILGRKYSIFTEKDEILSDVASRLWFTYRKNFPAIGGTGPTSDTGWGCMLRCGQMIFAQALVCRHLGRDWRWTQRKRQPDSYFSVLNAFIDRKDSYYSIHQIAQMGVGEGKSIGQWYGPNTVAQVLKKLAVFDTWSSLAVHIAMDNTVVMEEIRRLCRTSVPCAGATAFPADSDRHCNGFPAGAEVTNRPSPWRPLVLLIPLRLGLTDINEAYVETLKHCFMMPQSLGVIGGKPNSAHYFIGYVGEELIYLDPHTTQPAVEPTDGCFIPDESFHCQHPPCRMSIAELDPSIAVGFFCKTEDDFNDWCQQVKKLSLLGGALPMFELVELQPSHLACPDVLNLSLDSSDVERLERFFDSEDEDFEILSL
Protocol: as §3, §4

HCT116 cells [8] = experiment: clonogenic assay, HCT116 cells; type: cell-based, human; details: peptide 5 μM, long-term treatment
Protocol: (§5) FIGS. 4A and 4B depict the cytotoxic effects of peptide (5 μM) in H4 cells (FIG. 4A) and HCT116 cells (FIG. 4B) further confirmed by clonogenic assay according to several embodiments of the present invention.
as §1

cellular ATG4 = experiment: ATG4 cleavable luciferase assay in cells; type: cell-based, human; details: HCT116 cells expressing ATG4 cleavable luciferase, 6 hours, ATG4B silencer as positive control
Source text: (§6) FIGS. 3A to 3C illustrate the effects of peptides on cellular ATG4 proteolysis and autophagic flux according to several embodiments of the present invention. FIG. 3A depicts H2 peptides derived from different ATG4 substrates, including MAP1LC3B, MAP1LC3C and GBR, GBRL2 were mixed with chimeric GBRL2 containing N-terminal C-myc tag and C-terminal S-tag. The S-tag GBRL2 in the upper panel and ratios of non-cleaved/cleaved Myc-tag GBRL2 in the lower panel are used to evaluate the inhibitory effects of the H2 peptides. FIG. 3B depicts human glioblastoma H4 cells and colorectal cancer HCT116 cells both treated with 10 μM GBRL2 H2 peptide alone (orange) or TAT peptide alone (red) or GBRL2 H2 peptide conjugated with TAT peptide (green) for 6 hours and analyzed with flow cytometer. FIG. 3C depicts the HCT116 cells expressing ATG4 cleavable luciferase treated with GBRL2 H2 peptide for 6 hours. The luciferase activity is measured to determine the inhibitory effects on cellular ATG4 proteolysis.
The plasmid MAP1LC3 wt-Luc or MAP1LC3 G120A-Luc (as a normalization control) was transfected into HEK293T (2000 cells/40 μL) seeded in 384-well white plates for overnight. The cells were treated with ATG4 inhibitors for 8 hours or 16 hours, followed by adding 200 μM D-luciferin (Promega) into each well to monitor the luciferase activity to reflect ATG4 activity in cells. […]

ATG4B [9] = biological target: T2, ATG4B; experiment: ATG4B cleavage of chimeric GBRL2 substrate (N-terminal C-myc tag, C-terminal S-tag); type: biochemical
Source text: as §6, with “FIG. 3C depicts the HCT116 cells expressing ATG4 cleavable luciferase treated with GBRL2 H2 peptide for 6 hours.” left out
Further, H2 helical peptides from different ATG4 substrates were tested for ATG4B activity with GABARAL2 chimeric substrates, which contained N-terminal C-myc tag and C-terminal S-tag (FIG. 3A). Compared to the controls, the remaining S-tag and the ratio of full length C-myc tagged GBRL2/cleaved C-myc tagged GBRL2 levels were quantified to determine the inhibitory effects of peptides on ATG4B proteolytic activity toward GBRL2. […]

caspase-3 = biological target: T3, caspase-3 (Homo sapiens, UniProt P42574); experiment: caspase-3 counter assay with DEVD-AFC; type: biochemical; details: 0.5 nM caspase-3, 100 μM DEVD-AFC
T3 sequence (P42574 29-175 limits assumed): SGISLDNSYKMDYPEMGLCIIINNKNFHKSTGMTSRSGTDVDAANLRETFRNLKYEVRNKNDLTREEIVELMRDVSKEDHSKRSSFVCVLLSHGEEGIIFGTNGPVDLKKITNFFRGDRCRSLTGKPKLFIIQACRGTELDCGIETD
T3 sequence (P42574 176-277 limits assumed): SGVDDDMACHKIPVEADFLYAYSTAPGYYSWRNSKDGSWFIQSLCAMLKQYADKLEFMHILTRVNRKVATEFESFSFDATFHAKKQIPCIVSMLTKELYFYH
Protocol: as §3

HCT116 cells [10] = experiment: invasion through Matrigel-coated Transwell filters; type: cell-based, human
Source text: FIGS. 5A to 5B illustrate the effects of GBRL2 peptides on cancer cell migration and invasion according to several embodiments of the present invention. FIG. 5A depicts the invasion of HCT116 cells examined with Matrigel-coated Transwell filters in the presence or absence of peptides, and the cell invasion results are quantified with ImageJ software. FIG. 5B depicts the quantified results for invasion expressed as the mean±SEM. *p<0.05; **p<0.01.
as §2

H4 cells [11] = experiment: clonogenic assay, H4 cells; type: cell-based, human; details: peptide 5 μM, long-term treatment
Protocol: as §5, §1

inhibitory effect on ATG4A proteolytic activity (recombinant ATG4A)	inhibitory effect on ATG4B proteolytic activity (ATG4B [7])	IC50 on ATG4A, rank among H1, H2, H3 (recombinant ATG4A; GBRL2-PLA2 reporter assay)	relative strength of inhibition on ATG4B among H2 peptides (ATG4B [9]; compared with H2 peptides of other ATG4 substrates)	effect on activity of caspase-3 (caspase-3)	IC50 on ATG4B, rank among H1, H2, H3 (ATG4B [7]; GBRL2-PLA2 reporter assay)	Substance	cell viability (HCT116 cells [1])	cell migration [2]	cell viability (H4 cells [3])	PI positive proportion (HCT116 cells [4])	cell migration [5]	PI positive proportion (H4 cells [6])	colony formation (HCT116 cells [8])	cellular luciferase activity (cellular ATG4 proteolysis) (cellular ATG4)	inhibition of ATG4B cleavage activity toward GBRL2 (ATG4B [9]; remaining S-tag and ratio full length/cleaved C-myc tagged GBRL2)	invaded HCT116 cells (HCT116 cells [10])	colony formation (H4 cells [11])
–	–	–	–	–	–	TAT: Tat penetration domain, HIV-1 TAT basic domain, YGRKKRRQRRR, SEQ ID NO:2; control peptide (Ac-YGRKKRRQRRR-NH2) [reference compound]	no or little effects	not altered	no or little effects	no effects on PI uptake	not altered	no effects on PI uptake	–	–	–	–	–
showed inhibitory effects	showed inhibitory effects	–	–	–	–	H3: α-helical peptide derived from GBRL2, MGQLYEKE, SEQ ID NO:12 (Ac-MGQLYEKE-NH2)	–	–	–	–	–	–	–	–	–	–	–
showed inhibitory effects	showed inhibitory effects	lowest IC50	strongest inhibition	no effects	lowest IC50	α-helix 2 peptide derived from GBRL2 (GABARAPL2), VAQFMWIIRKR, SEQ ID NO:1 (VAQFMWIIRKR-NH2; not fully specified (N-terminus))	no or little effects	not altered	no or little effects	slightly increased PI positive cells	not altered	slightly increased PI positive cells	reduced colony formation	elevated cellular luciferase activity	inhibited ATG4B cleavage activity in dose dependent manner	significantly decreased the invaded HCT116 cells	reduced colony formation
showed inhibitory effects	showed inhibitory effects	–	–	–	–	H1: α-helical peptide derived from GBRL2, LEHRCVESAKIRAK, SEQ ID NO:11 (Ac-LEHRCVESAKIRAK-NH2)	–	–	–	–	–	–	–	–	–	–	–
